Assay results published in patent publication US8962627B2, “Oxime derivatives and their use as allosteric modulators of metabotropic glutamate receptors” (Prestwick Chemical, Inc., priority 2009, dated 2015).

How the values were obtained:
[1] = target: T1, human mGluR4 transiently over-expressed in HEK-293 cells (Homo sapiens, UniProt Q14833); assay: Human mGluR4 positive allosteric modulator evaluation using Ca++ functional assay; assay type: cell-based; conditions: for EC50: HEK-293 cells co-transfected with hmGluR4 and chimeric G protein, EC10 glutamate, intracellular calcium (Fluo4AM), read-out: mean EC50 of agonist/positive allosteric modulator activity on mGluR4; for PAM activity on mGluR4: up to 100 μM
T1 construct: expressed in transfected cells; host or cells: HEK-293 cells, transient co-transfection by electroporation
Experimental: Human mGluR4 Positive Allosteric Modulator Evaluation Using Ca^++ Functional Assay
Compounds of the present invention were tested successively for their agonist and positive allosteric modulator activities on human mGluR4 transiently over-expressed in HEK-293 cells. They exert agonist activity if, by themselves in absence of the endogenous glutamate, they are able to activate mGluR4; and they exert positive allosteric modulator activity if they increase the action of the endogenous glutamate.
Cell Culture and Transfection
HEK-293 cells were maintained in Modified Eagle's Medium supplemented with 10% Foetal Calf Serum, 1% Penicillin/Streptomycin and 1% non essential amino acids at 37° C./5% CO2.
Cells were co-transfected by electroporation with two DNA plasmids encoding hmGluR4 and a chimeric G protein allowing redirection of the activation signal to intracellular calcium pathway. Cells were plated after transfection onto polyornithine coated, clear bottom, black-walled, 96-well plates and cultured for 24 h.
Calcium Assay EC50 Determination
Receptor activity was detected by changes in intracellular calcium measured using the fluorescent Ca^2+ sensitive dye, Fluo4AM (Molecular Probes).
The day of the assay, medium was aspirated and replaced during 3 hours by medium without serum supplemented with 1% Glutamax, 1% Penicillin/Streptomycin and 1% non essential amino acids. Then, cells were washed with freshly prepared buffer B (HBSS 1×(PAA), Hepes 20 mM, MgSO4-7H2O 1 mM, Na2CO3 3.3 mM, CaCl2-2H2O 1.3 mM, 0.5% BSA, Probenecid 2.5 mM) and loaded at 37° C. in 5% CO2 for 1.5 hours with buffer B containing 1 μM Fluo4AM 0.1 mg/mL Pluronic Acid, 7 μg/mL Glutamate Pyruvate Transaminase and 2 mM sodium pyruvate. Afterwards cells were washed twice with buffer B and 50 μL of this buffer were added to each well. Addition of compounds and intracellular Ca^2+ measurements (excitation 485 nm, emission 525 nm) were performed by the fluorescence microplate reader FlexStation (Molecular Devices).
Agonist and positive allosteric modulator activities of compounds were consecutively evaluated on the same cells plate. Agonist activity was first tested during 60 s with the addition of compound alone on the cells. Then, the cells were stimulated by an EC10 glutamate concentration and fluorescence recorded for additional 60 s. EC10 glutamate concentration is the concentration giving 10% of the maximal glutamate response. Agonist and/or positive allosteric modulator activity(ies) were evaluated in comparison to basal signal evoked by EC10 glutamate alone.
For EC50 determination, a dose-response test was performed using 6 to 9 concentrations of each compound of the invention. Dose-response curves were fitted using the sigmoidal dose-response (variable slope) analysis in GraphPad Prism program (Graph Pad Inc) and EC50 of agonist/positive allosteric modulator activity was calculated. Dose-response experiments were all performed in duplicate, two times independently.

T1 sequence (Q14833 33-912): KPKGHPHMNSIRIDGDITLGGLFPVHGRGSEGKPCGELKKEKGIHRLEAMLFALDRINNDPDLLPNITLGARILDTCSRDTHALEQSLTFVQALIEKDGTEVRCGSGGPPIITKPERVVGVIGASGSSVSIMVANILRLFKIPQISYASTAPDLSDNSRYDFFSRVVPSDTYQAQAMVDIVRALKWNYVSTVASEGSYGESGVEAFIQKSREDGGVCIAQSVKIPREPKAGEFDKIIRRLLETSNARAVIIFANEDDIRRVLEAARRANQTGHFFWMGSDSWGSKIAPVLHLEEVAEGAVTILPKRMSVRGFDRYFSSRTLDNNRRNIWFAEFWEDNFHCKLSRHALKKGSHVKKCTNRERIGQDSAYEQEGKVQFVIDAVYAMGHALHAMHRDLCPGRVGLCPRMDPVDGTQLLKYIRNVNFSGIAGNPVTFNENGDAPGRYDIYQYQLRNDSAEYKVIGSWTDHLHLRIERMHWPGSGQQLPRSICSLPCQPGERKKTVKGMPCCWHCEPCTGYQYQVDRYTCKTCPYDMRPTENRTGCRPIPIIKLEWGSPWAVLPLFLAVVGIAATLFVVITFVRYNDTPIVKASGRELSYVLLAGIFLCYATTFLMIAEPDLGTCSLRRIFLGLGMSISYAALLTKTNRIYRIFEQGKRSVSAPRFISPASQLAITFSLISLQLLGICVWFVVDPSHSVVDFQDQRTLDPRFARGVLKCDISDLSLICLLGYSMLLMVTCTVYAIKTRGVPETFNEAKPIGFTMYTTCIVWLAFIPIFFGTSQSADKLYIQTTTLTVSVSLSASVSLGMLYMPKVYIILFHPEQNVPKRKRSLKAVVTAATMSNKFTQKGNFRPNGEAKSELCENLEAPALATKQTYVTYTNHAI

Row | EC50 [1] | melting point | PAM activity on mGluR4 [1] | SMILES
1 | < 1000 nM | 225 to 230 °C | – | Cl.ON=c1cc(-c2cn3cccc3cn2)oc2ccc(OCCN3CCC(F)(F)CC3)cc12 [Example 124, 6-[2-(4,4-Difluoro-piperidin-1-yl)-ethoxy]-2-pyrrolo[1,2-a]pyrazin-3-yl-chromen-4-one oxime, hydrochloride]
2 | < 5000 nM | 268 to 272 °C | – | CN(C(=O)COc1ccc2oc(-c3cc4cccn4cn3)cc(=NO)c2c1)c1ccc(F)cc1 [Example 151, N-(4-Fluoro-phenyl)-2-{4-hydroxyimino-2-pyrrolo[1,2-c]pyrimidin-3-yl-4H-chromen-6-yloxy}-N-methyl-acetamide]
3 | < 1000 nM | 260 to 264 °C | – | Cc1ccc2oc(-c3cc4ccccc4cn3)cc(=NO)c2c1 (mixture of isomers) [Example 5, 2-isoquinolin-3-yl-6-methyl-chromen-4-one oxime]
4 | < 1000 nM | > 230 °C (dec.) | – | Cl.ON=c1cc(-c2cc3cccn3cn2)oc2ccc(OCCN3CCC(F)(F)C3)cc12 [Example 119, 6-[2-(3,3-difluoro-pyrrolidin-1-yl)-ethoxy]-2-pyrrolo[1,2-c]pyrimidin-3-yl-chromen-4-one oxime, hydrochloride]
5 | < 1000 nM | 230 to 235 °C | – | Cl.O=C(NCCN1CCOCC1)c1ccc2oc(-c3cc4cccn4cn3)cc(=NO)c2c1 [Example 115, 4-(hydroxyimino)-2-pyrrolo[1,2-c]pyrimidin-3-yl-4H-chromene-6-carboxylic acid (2-morpholin-4-yl-ethyl)-amide, hydrochloride]
6 | < 1000 nM | 172 to 173 °C | – | COCCCc1ccc2oc(-c3cc4cccn4cn3)cc(=NO)c2c1 (mixture of isomers) [Example 83, 6-(3-Methoxy-propyl)-2-pyrrolo[1,2-c]pyrimidin-3-yl-chromen-4-one oxime]
7 | < 5000 nM | 255 to 260 °C | – | ON=c1cc(-c2cc3ccccc3cn2)oc2ccc(O)cc12 (mixture of isomers) [Example 41, 6-hydroxy-2-isoquinolin-3-yl-chromen-4-one oxime]
8 | < 1000 nM | 225 to 230 °C | – | Cl.ON=c1cc(-c2cc3sccc3cn2)oc2ccc(OCCN3CCC(F)(F)CC3)cc12 [Example 128, 6-[2-(4,4-Difluoro-piperidin-1-yl)-ethoxy]-2-thieno[3,2-c]pyridin-6-yl-chromen-4-one oxime, hydrochloride]
9 | < 1000 nM | 218 to 220 °C | – | Cl.ON=c1cc(-c2cc3sccc3cn2)oc2ccc(OCCn3ccnc3)cc12 [Example 129, 6-(2-imidazol-1-yl-ethoxy)2-thieno[3,2-c]pyridin-6-yl-chromen-4-one oxime, hydrochloride]
10 | < 1000 nM | 226 to 229 °C | – | Cl.ON=c1cc(-c2cc3sccc3cn2)oc2ccc(OCCN3CCC(F)(F)C3)cc12 [Example 133, 6-[2-(3,3-Difluoro-pyrrolidin-1-yl)-ethoxy]-2-thieno[3,2-c]pyridin-6-yl-chromen-4-one oxime, hydrochloride]
11 | < 5000 nM | > 260 °C (dec.) | – | Cl.ON=c1cc(-c2cc3cccn3cn2)oc2ccc(OCCN3CCCC3)cc12 [Example 87, 6-(2-Pyrrolidin-1-yl-ethoxy)-2-pyrrolo[1,2-c]pyrimidin-3-yl-chromen-4-one oxime, hydrochloride]
12 | < 1000 nM | > 220 °C (dec.) | – | Cl.ON=c1cc(-c2cc3cccn3cn2)oc2ccc(OCCCN3CCOCC3)cc12 [Example 101, 6-(3-morpholin-4-yl-propoxy)-2-pyrrolo[1,2-c]pyrimidin-3-yl-chromen-4-one oxime, hydrochloride]

The next lines start with the compound.

Row | SMILES | EC50 [1] | melting point | PAM activity on mGluR4 [1]
13 | ON=c1cc(-c2ccncn2)oc2ccccc12 [Example 80, 2-Pyrimidin-4-yl-chromen-4-one oxime] | – | 208 to 211 °C | no PAM activity
14 | ON=c1cc(-c2cc3ccccc3cn2)oc2cc(C#Cc3cccc(O)c3)ccc12 (mixture of isomers) [Example 30, 7-(3-hydroxyphenyl)ethynyl-2-isoquinolin-3-yl-chromen-4-one oxime] | < 5000 nM | 255 to 259 °C | –
15 | ON=c1cc(-c2cc3cccn3cn2)oc2ccc(OCCCOc3cccnc3)cc12 [Example 149, 6-[3-(Pyridin-3-yloxy)-propoxy]-2-pyrrolo[1,2-c]pyrimidin-3-yl-chromen-4-one oxime] | < 1000 nM | 202 to 205 °C | –
16 | CN1CCN(CCOc2ccc3oc(-c4cc5cccn5cn4)cc(=NO)c3c2)CC1.Cl.Cl [Example 93, 6-[2-(4-methyl-piperazin-1-yl)-ethoxy]-2-pyrrolo[1,2-c]pyrimidin-3-yl-chromen-4-one oxime, dihydrochloride] | < 5000 nM | > 230 °C (dec.) | –
17 | ON=c1cc(-c2cc3cccn3cn2)oc2ccc(OCCc3cccc(C(F)(F)F)c3)cc12 [Example 141, 2-Pyrrolo[1,2-c]pyrimidin-3-yl-6-[2-(3-trifluoromethyl-phenyl)-ethoxy]-chromen-4-one oxime] | < 1000 nM | 217 to 218 °C | –
18 | Cl.ON=c1cc(-c2cc3cccn3cn2)oc2ccc(CCCCN3CCOCC3)cc12 [Example 102, 6-(4-morpholin-4-yl-butyl)-2-pyrrolo[1,2-c]pyrimidin-3-yl-chromen-4-one oxime, hydrochloride] | < 1000 nM | 180 to 185 °C | –
19 | Cl.ON=c1cc(-c2cn3cccc3cn2)oc2ccc(OCCN3CCOCC3)cc12 [Example 123, 6-(2-Morpholin-4-yl-ethoxy)-2-(8aH-pyrrolo[1,2-a]pyrazin-3-yl)-chromen-4-one oxime, hydrochloride] | < 1000 nM | > 250 °C (dec.) | –
20 | ON=c1cc(-c2cc3ccccc3cn2)oc2ccc(C(F)(F)F)cc12 (mixture of isomers) [Example 11, 2-isoquinolin-3-yl-6-trifluoromethyl-chromen-4-one oxime] | < 5000 nM | 245 to 247 °C | –
21 | Cl.ON=c1cc(-c2cc3cccn3cn2)oc2ccc(OCCCc3ccncc3)cc12 [Example 159, 6-(3-Pyridin-4-yl-propoxy)-2-pyrrolo[1,2-c]pyrimidin-3-yl-chromen-4-one oxime, hydrochloride] | < 1000 nM | 210 to 215 °C | –
22 | ON=c1cc(-c2cc3ccccc3cn2)oc2ccc(F)cc12 (mixture of isomers) [Example 6, 6-fluoro-2-isoquinolin-3-yl-chromen-4-one oxime] | < 5000 nM | 278 to 280 °C | –
23 | ON=c1cc(-c2ccc3ccccc3c2)oc2ccccc12 [Example 74, 2-Naphthalen-2-yl-chromen-4-one oxime] | – | 224 to 226 °C | no PAM activity
24 | CCc1ccc2oc(-c3cc4ccccc4cn3)cc(=NO)c2c1 [Example 37, 6-ethyl-2-isoquinolin-3-yl-chromen-4-one oxime] | < 1000 nM | 210 to 212 °C | –
25 | OCCC#Cc1ccc2c(=NO)cc(-c3cc4ccccc4cn3)oc2c1 (mixture of isomers) [Example 52, 7-(4-Hydroxy-but-1-ynyl)-2-isoquinolin-3-yl-chromen-4-one oxime] | < 5000 nM | 238 to 240 °C | –
